Where “and” joins values, the source holds several entries; their conditions need not be identical. Equal entries are not always repeated. Inconclusive results and toxic doses are left out.
Tested on: P388 leukemia ip, CD2F1 mice, survival T/C
Assay: NCI In Vivo Anticancer Drug Screen. Data for tumor model P388 Leukemia (intraperitoneal) in CD2F1 (CDF1) mice
Details: endpoint: median survival time, higher = longer survival
Summary of the method: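 Mice carrying the transplanted tumor received test compound or vehicle. Survival was recorded in each group, and the value is the treated-group measurement divided by that of the vehicle-treated control group.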

[1] = dose: 60.0 mg/kg/injection, schedule: Q01DX005 (ip), vehicle: Klucel (hydroxypropylcellulose) (HPC)
[2] = dose: 120.0 mg/kg/injection, schedule: Q01DX005 (ip), vehicle: Klucel (hydroxypropylcellulose) (HPC)
[3] = dose: 240.0 mg/kg/injection, schedule: Q01DX005 (ip), vehicle: Klucel (hydroxypropylcellulose) (HPC)
[4] = dose: 25.0 mg/kg/injection, schedule: Q01DX005 (ip), vehicle: Klucel (hydroxypropylcellulose) (HPC)
[5] = dose: 50.0 mg/kg/injection, schedule: Q01DX005 (ip), vehicle: Klucel (hydroxypropylcellulose) (HPC)
[6] = dose: 100.0 mg/kg/injection, schedule: Q01DX005 (ip), vehicle: Klucel (hydroxypropylcellulose) (HPC)
[7] = dose: 200.0 mg/kg/injection, schedule: Q01DX005 (ip), vehicle: Klucel (hydroxypropylcellulose) (HPC)
[8] = dose: 100.0 mg/kg/injection, schedule: Q01DX001 (ip), vehicle: saline with Tween-80
[9] = dose: 200.0 mg/kg/injection, schedule: Q01DX001 (ip), vehicle: saline with Tween-80
[10] = dose: 50.0 mg/kg/injection, schedule: Q01DX009 (ip), vehicle: saline with Tween-80
[11] = dose: 100.0 mg/kg/injection, schedule: Q01DX009 (ip), vehicle: saline with Tween-80
[12] = dose: 200.0 mg/kg/injection, schedule: Q01DX009 (ip), vehicle: saline with Tween-80
[13] = dose: 50.0 mg/kg/injection, schedule: Q01DX009 (ip), vehicle: Klucel (hydroxypropylcellulose) (HPC)
[14] = dose: 100.0 mg/kg/injection, schedule: Q01DX009 (ip), vehicle: Klucel (hydroxypropylcellulose) (HPC)

COC(=O)c1nc(NN)[nH]c(=O)c1C
T/C (dose: 15.0 mg/kg/injection, schedule: Q01DX005 (ip), vehicle: saline with Tween-80): 103 % of control | T/C (dose: 30.0 mg/kg/injection, schedule: Q01DX005 (ip), vehicle: saline with Tween-80): 98 % of control | T/C (dose: 60.0 mg/kg/injection, schedule: Q01DX005 (ip), vehicle: saline with Tween-80): 99 % of control and 97 % of control

CCCN=c1c2c(OC)c(OC)ccc2cc2n1CCc1cc3c(cc1-2)OCO3
T/C (dose: 0.63 mg/kg/injection, schedule: Q01DX009 (ip), vehicle: water): 110 % of control | T/C (dose: 1.25 mg/kg/injection, schedule: Q01DX009 (ip), vehicle: water): 99 % of control | T/C (dose: 2.5 mg/kg/injection, schedule: Q01DX009 (ip), vehicle: water): 110 % of control | T/C (dose: 5.0 mg/kg/injection, schedule: Q01DX009 (ip), vehicle: water): 110 % of control | T/C (dose: 10.0 mg/kg/injection, schedule: Q01DX009 (ip), vehicle: water): 115 % of control

CN(C)c1ccc(C2OC(=N)C(=S)N2C)cc1 (centres undefined)
T/C [1]: 112 % of control | T/C [2]: 109 % of control | T/C [3]: 109 % of control

C#CC(C)C(C(C)=O)C(=O)c1ccccc1.[C-]#[O+].[C-]#[O+].[C-]#[O+].[C-]#[O+].[C-]#[O+].[C-]#[O+].[Co].[Co] (centres undefined)
T/C (dose: 12.5 mg/kg/injection, schedule: Q01DX005 (ip), vehicle: Klucel (hydroxypropylcellulose) (HPC)): 108 % of control | T/C [4]: 101 % of control | T/C [5]: 104 % of control and 95 % of control

COC(=O)NC(=O)CNc1ncc([N+](=O)[O-])s1
T/C (dose: 100.0 mg/kg/injection, schedule: Q01DX001 (ip), vehicle: saline): 107 % of control | T/C (dose: 200.0 mg/kg/injection, schedule: Q01DX001 (ip), vehicle: saline): 107 % of control | T/C (dose: 400.0 mg/kg/injection, schedule: Q01DX001 (ip), vehicle: saline): 88 % of control

N=C(N)c1ccc(OCCCOc2ccc(C(=N)N)cc2)cc1
T/C (dose: 6.25 mg/kg/injection, schedule: Q01DX005 (ip), vehicle: saline): 108 % of control | T/C (dose: 12.5 mg/kg/injection, schedule: Q01DX005 (ip), vehicle: saline): 117 % of control | T/C (dose: 25.0 mg/kg/injection, schedule: Q01DX005 (ip), vehicle: saline): 115 % of control

CC(=NC1CCCCC1)Nc1ccc(NC(=O)c2ccc(C(=O)Nc3ccc(NC(C)=NC4CCCCC4)cc3)cc2)cc1
T/C [4]: 98 % of control | T/C [5]: 104 % of control | T/C [6]: 98 % of control | T/C [7]: 102 % of control

CCCOC(=O)Nc1ccc2c(c1)c1c3[nH]c(=O)c4cccn4c3ccc1n2CC
T/C [8]: 94 % of control | T/C [9]: 94 % of control

COC(=O)C1=CO[C@@H](C)[C@@H]2CN3CCc4c([nH]c5cc(OC)ccc45)[C@@H]3C[C@H]12
T/C (dose: 50.0 mg/kg/injection, schedule: Q01DX005 (ip), vehicle: saline with Tween-80): 96 % of control | T/C (dose: 100.0 mg/kg/injection, schedule: Q01DX005 (ip), vehicle: saline with Tween-80): 92 % of control

CCOC(=O)CC(=O)NCCc1cccc(OC)c1OC
T/C (dose: 100.0 mg/kg/injection, schedule: Q04DX003 (ip), vehicle: other): 100 % of control | T/C (dose: 200.0 mg/kg/injection, schedule: Q04DX003 (ip), vehicle: other): 100 % of control | T/C (dose: 400.0 mg/kg/injection, schedule: Q04DX003 (ip), vehicle: other): 105 % of control

CCC1(CN(C)C)C(=O)N(C)C(=O)N(C2CCCCC2)C1=O (centres undefined)
T/C [10]: 96 % of control | T/C [11]: 102 % of control | T/C [12]: 107 % of control

COc1cc(C)c(/C=C/C(C)=C/c2cc(C)cc(=O)o2)c(C)c1C
T/C [4]: 86 % of control | T/C [5]: 88 % of control | T/C [6]: 86 % of control and 92 % of control

Cc1c(O)c(O)cc[n+]1C1OC(CO)C(O)C1O (centres undefined)
T/C (dose: 100.0 mg/kg/injection, schedule: Q01DX005 (ip), vehicle: saline): 98 % of control | T/C (dose: 200.0 mg/kg/injection, schedule: Q01DX005 (ip), vehicle: saline): 100 % of control | T/C (dose: 400.0 mg/kg/injection, schedule: Q01DX005 (ip), vehicle: saline): 102 % of control

CC(=O)OCN(C)N=Nc1ccc(C(N)=O)cc1
T/C [1]: 92 % of control | T/C [2]: 95 % of control | T/C [3]: 95 % of control

N/C(=N\OC(=O)Nc1cccc(Cl)c1)C(Cl)(Cl)Cl
T/C (dose: 25.0 mg/kg/injection, schedule: Q01DX009 (ip), vehicle: Klucel (hydroxypropylcellulose) (HPC)): 98 % of control | T/C [13]: 113 % of control | T/C [14]: 112 % of control

O=C1C(=C2C=CN(CCCN3CCCCC3)C=C2)C(=O)c2ccccc21
T/C [13]: 91 % of control | T/C [14]: 102 % of control | T/C (dose: 200.0 mg/kg/injection, schedule: Q01DX009 (ip), vehicle: Klucel (hydroxypropylcellulose) (HPC)): 102 % of control

O=C(O)C(S)Cc1cnc[nH]1 (centres undefined)
T/C (dose: 100.0 mg/kg/injection, schedule: Q04DX002 (ip), vehicle: saline): 99 % of control | T/C (dose: 200.0 mg/kg/injection, schedule: Q04DX002 (ip), vehicle: saline): 99 % of control

CC(=O)OCCN1c2ccccc2Sc2cnccc21
T/C [11]: 100 % of control | T/C [12]: 100 % of control | T/C (dose: 400.0 mg/kg/injection, schedule: Q01DX009 (ip), vehicle: saline with Tween-80): 95 % of control

O=C(C(Cl)Cl)N1CCN(C(=O)C(Cl)Cl)CC1
T/C [5]: 102 % of control | T/C [6]: 110 % of control | T/C [7]: 105 % of control

O=C(O)c1nn(Cc2ccc(Br)cc2Br)c2ccccc12
T/C [8]: 114 % of control | T/C [9]: 104 % of control | T/C (dose: 400.0 mg/kg/injection, schedule: Q01DX001 (ip), vehicle: saline with Tween-80): 114 % of control

O=C(O)C(S(=O)(=O)O)S(=O)(=O)O
T/C (dose: 1.56 mg/kg/injection, schedule: Q01DX001 (ip), vehicle: saline with Tween-80): 103 % of control | T/C (dose: 3.13 mg/kg/injection, schedule: Q01DX001 (ip), vehicle: saline with Tween-80): 100 % of control | T/C (dose: 6.25 mg/kg/injection, schedule: Q01DX001 (ip), vehicle: saline with Tween-80): 100 % of control

CC(=O)NC(=S)Nc1ccccc1
T/C (dose: 25.0 mg/kg/injection, schedule: Q01DX001 (ip), vehicle: Klucel (hydroxypropylcellulose) (HPC)): 100 % of control | T/C (dose: 50.0 mg/kg/injection, schedule: Q01DX001 (ip), vehicle: Klucel (hydroxypropylcellulose) (HPC)): 101 % of control | T/C (dose: 100.0 mg/kg/injection, schedule: Q01DX001 (ip), vehicle: Klucel (hydroxypropylcellulose) (HPC)): 103 % of control

CCOC(=O)CS(=O)(=O)CCS(=O)(=O)CC(=O)OCC
T/C (dose: 50.0 mg/kg/injection, schedule: Q01DX009 (ip), vehicle: saline): 95 % of control | T/C (dose: 100.0 mg/kg/injection, schedule: Q01DX009 (ip), vehicle: saline): 97 % of control | T/C (dose: 200.0 mg/kg/injection, schedule: Q01DX009 (ip), vehicle: saline): 102 % of control

O=NNc1ncc(Br)cc1Br
T/C (dose: 1.56 mg/kg/injection, schedule: Q01DX009 (ip), vehicle: water): 100 % of control | T/C (dose: 3.12 mg/kg/injection, schedule: Q01DX009 (ip), vehicle: water): 99 % of control and 107 % of control | T/C (dose: 6.25 mg/kg/injection, schedule: Q01DX009 (ip), vehicle: water): 107 % of control and 110 % of control | T/C (dose: 12.5 mg/kg/injection, schedule: Q01DX005 (ip), vehicle: water): 119 % of control and 122 % of control | T/C (dose: 12.5 mg/kg/injection, schedule: Q01DX009 (ip), vehicle: water): 122 % of control | T/C (dose: 25.0 mg/kg/injection, schedule: Q01DX009 (ip), vehicle: water): 122 % of control | T/C (dose: 50.0 mg/kg/injection, schedule: Q01DX005 (ip), vehicle: water): 154 % of control and 165 % of control | T/C (dose: 100.0 mg/kg/injection, schedule: Q01DX005 (ip), vehicle: water): 175 % of control and 190 % of control and 206 % of control

Cc1coc2c1C[C@@]1(C)[C@H](C2)C(=O)CC[C@@H]1C
T/C (dose: 37.5 mg/kg/injection, schedule: Q01DX009 (ip), vehicle: Klucel (hydroxypropylcellulose) (HPC)): 105 % of control

O=C1COC(c2ccccc2O)=NN1CCN1CCOCC1
T/C [10]: 103 % of control | T/C [11]: 103 % of control | T/C [12]: 94 % of control

CCCCCCC[n+]1cccc(C(=O)N2CCOCC2)c1
T/C (dose: 12.5 mg/kg/injection, schedule: Q01DX009 (ip), vehicle: saline with Tween-80): 104 % of control | T/C (dose: 25.0 mg/kg/injection, schedule: Q01DX009 (ip), vehicle: saline with Tween-80): 98 % of control | T/C [10]: 100 % of control

Source: PubChem BioAssay AID330 (DTP/NCI, 2004)
